In this assay the test system is CD2F1 mice, L1210 leukemia ip, survival T/C. Put plainly: NCI In Vivo Anticancer Drug Screen. Data for tumor model L1210 Leukemia (intraperitoneal) in CD2F1 (CDF1) mice. The following applies: endpoint: mean survival time, higher = longer survival. Summed up:
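In this screen, transplantable tumors were grown in mice given either the compound or its vehicle. Results were expressed as the treated measurement relative to the control measurement.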

“And” between values parts separate entries of the source, which are not always exact repeats. Identical values can stand only once. Toxic doses and inconclusive results are not listed.

As for `CC(=O)NC(CCC(=O)C=[N+]=N)C(=O)O` (stereo not drawn), the T/C reads like this: (dose: 0.01 mg/kg/injection, schedule: Q03HX016 (ip), vehicle: saline) 97 % of control; (dose: 0.03 mg/kg/injection, schedule: Q03HX008 (ip), vehicle: saline) 95 % of control; (dose: 0.04 mg/kg/injection, schedule: Q03HX016 (ip), vehicle: saline) 97 % of control; (dose: 0.06 mg/kg/injection, schedule: Q03HX008 (ip), vehicle: saline) 97 % of control; (dose: 0.06 mg/kg/injection, schedule: Q03HX016 (ip), vehicle: saline) 94 % of control; (dose: 0.13 mg/kg/injection, schedule: Q01DX005 (iv), vehicle: saline) 98 % of control. The T/C (dose: 0.13 mg/kg/injection, schedule: Q01DX009 (ip), vehicle: saline) was 103 % of control; the T/C (dose: 0.13 mg/kg/injection, schedule: Q01DX009 (oral), vehicle: saline) is 102 % of control; the T/C (dose: 0.13 mg/kg/injection, schedule: Q03HX008 (ip), vehicle: saline) was 104 % of control; the T/C (dose: 0.13 mg/kg/injection, schedule: Q03HX016 (ip), vehicle: saline) is 106 % of control; the T/C (dose: 0.13 mg/kg/injection, schedule: Q03HX024 (ip), vehicle: saline) is 90 % of control; the T/C (dose: 0.13 mg/kg/injection, schedule: Q04DX003 (ip), vehicle: saline) is 101 % of control. Moreover, the T/C runs as follows: (dose: 0.13 mg/kg/injection, schedule: Q08DX002 (ip), vehicle: saline) 94 % of control; (dose: 0.25 mg/kg/injection, schedule: Q01DX001 (ip), vehicle: saline) 92 % of control; (dose: 0.25 mg/kg/injection, schedule: Q01DX001 (iv), vehicle: saline) 103 % of control; (dose: 0.25 mg/kg/injection, schedule: Q01DX005 (iv), vehicle: saline) 106 % of control; (dose: 0.25 mg/kg/injection, schedule: Q01DX009 (ip), vehicle: saline) 112 % of control; (dose: 0.25 mg/kg/injection, schedule: Q01DX009 (oral), vehicle: saline) 113 % of control. The T/C runs as follows: (dose: 0.25 mg/kg/injection, schedule: Q03HX008 (ip), vehicle: saline) 115 % of control and 122 % of control; (dose: 0.25 mg/kg/injection, schedule: Q03HX024 (ip), vehicle: saline) 100 % of control; (dose: 0.25 mg/kg/injection, schedule: Q04DX003 (ip), vehicle: saline) 101 % of control; (dose: 0.25 mg/kg/injection, schedule: Q08DX002 (ip), vehicle: saline) 97 % of control; (dose: 0.4 mg/kg/injection, schedule: Q01DX009 (ip), vehicle: water) 166 % of control; (dose: 0.5 mg/kg/injection, schedule: Q01DX001 (ip), vehicle: saline) 97 % of control. In addition, the T/C (dose: 0.5 mg/kg/injection, schedule: Q01DX001 (iv), vehicle: saline) was 103 % of control; the T/C (dose: 0.5 mg/kg/injection, schedule: Q01DX005 (iv), vehicle: saline) was 118 % of control; the T/C (dose: 0.5 mg/kg/injection, schedule: Q04DX003 (ip), vehicle: saline) was 106 % of control; the T/C (dose: 0.5 mg/kg/injection, schedule: Q08DX002 (ip), vehicle: saline) was 104 % of control; the T/C (dose: 0.8 mg/kg/injection, schedule: Q01DX009 (ip), vehicle: water) is 115 % of control; the T/C (dose: 1.0 mg/kg/injection, schedule: Q01DX001 (ip), vehicle: saline) is 106 % of control. The T/C is 107 % of control (dose: 1.0 mg/kg/injection, schedule: Q01DX001 (iv), vehicle: saline); 110 % of control (dose: 1.0 mg/kg/injection, schedule: Q01DX001 (oral), vehicle: saline); 119 % of control (dose: 1.0 mg/kg/injection, schedule: Q01DX009 (ip), vehicle: saline); 115 % of control (dose: 1.0 mg/kg/injection, schedule: Q01DX009 (oral), vehicle: saline); 151 % of control (dose: 1.0 mg/kg/injection, schedule: Q03HX016 (ip), vehicle: saline); 181 % of control (dose: 1.0 mg/kg/injection, schedule: Q03HX024 (ip), vehicle: saline). Also, the T/C (dose: 1.0 mg/kg/injection, schedule: Q04DX003 (ip), vehicle: saline) is 117 % of control; the T/C (dose: 1.0 mg/kg/injection, schedule: Q06HX012 (ip), vehicle: saline) is 158 % of control; the T/C (dose: 1.0 mg/kg/injection, schedule: Q08DX002 (ip), vehicle: saline) was 111 % of control; the T/C (dose: 2.0 mg/kg/injection, schedule: Q01DX001 (ip), vehicle: saline) is 104 % of control and 109 % of control; the T/C (dose: 2.0 mg/kg/injection, schedule: Q01DX001 (iv), vehicle: saline) was 107 % of control; the T/C (dose: 2.0 mg/kg/injection, schedule: Q01DX001 (oral), vehicle: saline) is 120 % of control. Moreover, the T/C (dose: 2.0 mg/kg/injection, schedule: Q01DX005 (ip), vehicle: saline) is 109 % of control; the T/C (dose: 2.0 mg/kg/injection, schedule: Q01DX005 (iv), vehicle: saline) is 120 % of control; the T/C (dose: 2.0 mg/kg/injection, schedule: Q03HX016 (ip), vehicle: saline) is 152 % of control; the T/C (dose: 2.0 mg/kg/injection, schedule: Q03HX024 (ip), vehicle: saline) is 108 % of control; the T/C (dose: 2.0 mg/kg/injection, schedule: Q04DX003 (ip), vehicle: saline) is 121 % of control and 124 % of control; the T/C (dose: 2.0 mg/kg/injection, schedule: Q06HX008 (ip), vehicle: saline) is 156 % of control. Further, the T/C by setting is: (dose: 2.0 mg/kg/injection, schedule: Q06HX012 (ip), vehicle: saline) 151 % of control; (dose: 2.0 mg/kg/injection, schedule: Q08DX002 (ip), vehicle: saline) 113 % of control and 107 % of control; (dose: 4.0 mg/kg/injection, schedule: Q01DX001 (ip), vehicle: saline) 112 % of control; (dose: 4.0 mg/kg/injection, schedule: Q01DX001 (iv), vehicle: saline) 117 % of control; (dose: 4.0 mg/kg/injection, schedule: Q01DX001 (oral), vehicle: saline) 115 % of control; (dose: 4.0 mg/kg/injection, schedule: Q01DX005 (ip), vehicle: saline) 102 % of control. In addition, the T/C is, setting by setting: (dose: 4.0 mg/kg/injection, schedule: Q06HX008 (ip), vehicle: saline) 152 % of control; (dose: 4.0 mg/kg/injection, schedule: Q06HX012 (ip), vehicle: saline) 113 % of control; (dose: 4.0 mg/kg/injection, schedule: Q08DX002 (ip), vehicle: saline) 111 % of control; (dose: 8.0 mg/kg/injection, schedule: Q01DX001 (ip), vehicle: saline) 116 % of control; (dose: 8.0 mg/kg/injection, schedule: Q01DX001 (oral), vehicle: saline) 116 % of control; (dose: 8.0 mg/kg/injection, schedule: Q08DX002 (ip), vehicle: saline) 114 % of control. Further, under “dose: 16.0 mg/kg/injection, schedule: Q04DX003 (ip), vehicle: saline”, the T/C is 154 % of control.

As for `CC(SC(=N)N)C(=N)N` (stereo not drawn), the T/C reads like this: (dose: 25.0 mg/kg/injection, schedule: Q04DX002 (ip), vehicle: saline) 97 % of control; (dose: 50.0 mg/kg/injection, schedule: Q04DX002 (ip), vehicle: saline) 90 % of control; (dose: 100.0 mg/kg/injection, schedule: Q04DX002 (ip), vehicle: saline) 105 % of control.

Consider `Cc1c2cc[n+](CCN3CCCCC3)cc2c(C)c2c1[nH]c1ccc(O)cc12`, for which the T/C (dose: 1.56 mg/kg/injection, schedule: Q01DX009 (ip), vehicle: suspension in saline) was 160 % of control; the T/C (dose: 12.5 mg/kg/injection, schedule: Q01DX009 (ip), vehicle: saline) was 150 % of control; the T/C (dose: 12.5 mg/kg/injection, schedule: Q01DX009 (ip), vehicle: suspension in saline) is 121 % of control; the T/C (dose: 50.0 mg/kg/injection, schedule: Q01DX009 (ip), vehicle: saline) was 188 % of control; the T/C (dose: 50.0 mg/kg/injection, schedule: Q01DX009 (ip), vehicle: suspension in saline) was 92 % of control.

`O.O.O.O.[Fe].[Fe].[Fe].[NH-]c1c(C(=O)O)ncn1C1[OH+]C(CO)C(O)C1O.[NH-]c1c(C(=O)O)ncn1C1[OH+]C(CO)C(O)C1O` (stereo not drawn): the T/C by setting is: (dose: 12.5 mg/kg/injection, schedule: Q01DX005 (ip), vehicle: distilled water + Tween-80) 94 % of control; (dose: 25.0 mg/kg/injection, schedule: Q01DX005 (ip), vehicle: distilled water + Tween-80) 97 % of control; (dose: 50.0 mg/kg/injection, schedule: Q01DX005 (ip), vehicle: distilled water + Tween-80) 103 % of control; (dose: 200.0 mg/kg/injection, schedule: Q01DX005 (ip), vehicle: distilled water + Tween-80) 88 % of control.

These data come from PubChem BioAssay AID256 (DTP/NCI, 2004).
